Source: patent US9290427B2, “Anti-invasive compounds” (Universiteit Gent, priority 2012, dated 2016)
“And” between values parts separate entries of the source, which are not always exact repeats. Identical values can stand only once.

Key:
[1] = tested on: BLM cells; test: Matrigel invasion assay; format: cell-based; settings: for Number of invasive BLM-cells found at the basolateral side of the filter: 24 h, samples 1 and 2
Text: An interesting method to determine the invasive capacity of cells and the anti-invasive potential of different substances is the matrigel invastion assay. Matrigel can be considered to be a basal membrane and is obtained from mice EHS sarcomas (tumors having an abundant expression of extracellular matrix proteins). The primary component of a matrigel is laminin, further also including collagen IV, heparan, sulphate proteoglycans and growth factors. It is also important that matrix degrading enzymes and inhibitors are present.
At room temperature, matrigel polymerizes into a matrix which mimicks a basal membrane of breast cells. The behavior of cells towards a matrigel highly resembles the in vivo situation and therefore this test is acknowledged to be an appropriate approach to the study migration and invasion, and the role of ECM receptors and matrix degrading enzymes in these processes.
In particular for this example, test cells were placed on a matrigel layer in serum-free medium. Subsequently, said cells were allowed to invade into the matrigel layer upon which they move through a filter, and attach to the bottom of said filter. The migration of the cells is stimulated by the presence of conditioned medium, at the other side of the filter, which act as a chemoattractant for the cells.
50 μl matrigel (+/−3 mg/ml serum-free DMEM) was applied in the apical compartment (upper chamber) of 24-well plate inserts having a pore size of 8 μm. After 1 h of polymerization (37° C.) 50.000 BLM cells (in 150 μl serum-free DMEM) were seeded and incubated with varying concentrations of compound 49 (0-100 μM). In the basolateral compartment (lower chamber), 700 μl conditioned medium, containing the same concentration of compound 49 as used in the apical compartment was applied as a chemo-attractant for the cells. The plates were incubated for 24 h at 37° C. and the matrigel and cells at the apical side were removed using wetted cotton swabs (PBSD-). The filters were washed twice on both sides with PBSD- and subsequently incubated for 10 min in ice-cold methanol to fix the cells. To quantify the number of migrated cells, the filters were incubated for 15 min with DAPI and subsequently washed 4×5 min with PBSD-. The filters were then mounted on coverslips and the number of migrated cells was determined for each concentration of compound 49 using a fluorescence microscope.

[2] = tested on: TR146 cells; test: SRB test, TR146; format: cell-based, human; settings: 1 or 10 μmol·L−1, 24 h
Experimental: The SRB assay is used to evaluate growth effects on cells, and measures the total protein content. In this test, 5,000 cells are seeded in a cup of a 96-well plate. Upon a 24 h-attachment period, cells are treated with a certain amount of the test molecule (dissolved in DMSO). After a pre-chosen incubation time, cells are fixed with 50 μL of 50% trichloroacetic acid (2° C., 1 h). Afterward, the plate is rinsed five times with tap water, and air dried overnight.
Next, proteins are stained with 75 μL of a 0.4% solution of SRB in AcOH (30 min). Unbound SRB is subsequently removed by washing with a 1% solution of glacial AcOH, whereupon the plate is air dried. Then, bound SRB is redissolved in 100 μL of a 10 mmol·L^−1 tris(hydroxymethyl)aminomethane (Tris) buffer (pH=10.5), after which optical density is determined at 490 nm with a spectrophotometer.
(§1) In order to verify whether the antiproliferative effects of compound 49, witnessed in BLM and MCF-7/6 cells at high concentrations, were cell specific, additional SRB and MTT assays on a further five cell lines (HCT8-E11, TR146, FaDu, 3T3-L1 and CT5.3) were conducted (FIG. 8). The results for MCF-7/6 cells were added to facilitate comparison.
The CT5.3 cell line consists of human myofibroblasts which were isolated from a colon tumor (Van Hoorde et al., 1999). […]

[3] = tested on: TR146 cells; test: MTT test, TR146; format: cell-based, human
Experimental: An MTT test provides an indication of cell viability, proliferation and activity through determination of the mitochondrial conversion of 3-(4,5-dimethylthiazol-2-yl)-2,5-diphenyltetrazolium bromide (MTT), a yellow salt, into formazan, a salt that precipitates under the form of blue crystals.
In concreto, 5,000 cells are seeded in a cup of a 96 well-plate, treated with the desired amount of the test substance, and incubated for a chosen period of time. Next, 40 μL of a filtered (0.2 μm) 5 mg·mL^−1 solution of MTT in PBS is added to the cup. After 2 h of incubation at 37° C. in the dark, all liquid is removed. The obtained formazan salts are dissolved in 200 μL of DMSO, whereupon optical density is measured at 490 nm.
as §1
The CT5.3 cell line consists of human myofibroblasts which were isolated from a colon tumor (Van Hoorde et al., 1999). 3T3-L1 cells are murine fibroblasts, originating from embryo's of Swiss mice (Todaro and Green, 1963). HCT8-E11, FaDu and TR146 are human epithelial cancer cell lines. […]

**Q.** `COc1cc(C(=O)/C=C/c2ccc(F)cc2)cc(OC)c1OC` [Compound 49, (2E)-3-(4-Fluorophenyl)-1-(3,4,5-trimethoxyphenyl)propenone] was tested. Which “reduction of the number of invasive cells” value ([1]; 0.1 μM) did it give?
**A.** Its value is 80%.

**Q.** And the “reduction of the number of invasive cells” value ([1]; 1 μM)?
**A.** Its value is 67%.

**Q.** And the “Number of invasive BLM-cells found at the basolateral side of the filter” value ([1]; 1 μM)?
**A.** The value was 282 and 160.

**Q.** And the “reduction of the number of invasive cells” value ([1]; 10 μM)?
**A.** The value was 93%.

**Q.** What about the “Number of invasive BLM-cells found at the basolateral side of the filter” value ([1]; 10 μM) of the same compound?
**A.** Its value is 57 and 33.

**Q.** And the “reduction of the number of invasive cells” value ([1]; 100 μM)?
**A.** The value was 98%.

**Q.** What about the “total protein content versus solvent control” value [2] of the same compound?
**A.** Its value is “no significant differences”.

**Q.** And the “increase in mitochondrial activity” value ([3]; 1 μmol·L−1, 24 h)?
**A.** Its value is 7%.

**Q.** What about the “reduction in mitochondrial activity” value ([3]; 10 μmol·L−1, 24 h) of the same compound?
**A.** Its value is 30%.
